Source: PubChem BioAssay AID2060884 (Molecular Pharmacology Branch, DTP, NCI, 2025)

Tested on: NCI-H929 complex spheroids, viability % test/control
Assay: Anticancer human tumor NCI-H929 cell line growth inhibition [RAS];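 note: compound exposure lasted seven days before viability was read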;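 for viability, T/C: 100% = DMSO vehicle control viability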
Details: for IC50: curve of first compound; for viability, T/C: stronger effect = lower value
How it was run: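 Agents were tested in combination matrices in half-log decrements from a top concentration at or near clinical Cmax (10 microM if undetermined). Targets were multi-cell spheroids of tumour lines plus HUVEC and MSC stromal cells.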

`CC(C)n1nc(-c2ccc3oc(N)nc3c2)c2c(N)ncnc21` + CCn1c(-c2cc(N3CCN(C)CC3)cnc2C(C)OC)c2c3cc(ccc31)-c1csc(n1)CC(NC(=O)C1CC1C)C(=O)N1CCCC(N1)C(=O)OCC(C)(C)C2 was tested, and the IC50 (second compound 0.000949 µM) was 55 nM, the IC50 (second compound 0.003 µM) was 55 nM and the IC50 (second compound 0.00949 µM) was 29.2 nM. The IC50 (second compound 0.03 µM) was 2.58 nM, the IC50 (second compound 0.0949 µM) was less than 0.316 nM and the IC50 (second compound 0.3 µM) was less than 0.316 nM. For the same compound, the viability, T/C (second compound 0.000949 µM, first compound 0.000316 µM) was 103%, the viability, T/C (second compound 0.000949 µM, first compound 0.001 µM) was 101% and the viability, T/C (second compound 0.000949 µM, first compound 0.00316 µM) was 111%. The viability, T/C (second compound 0.000949 µM, first compound 0.01 µM) was 110%, the viability, T/C (second compound 0.000949 µM, first compound 0.0316 µM) was 93.2% and the viability, T/C (second compound 0.000949 µM, first compound 0.1 µM) was 3.1%. The viability, T/C (second compound 0.003 µM, first compound 0.000316 µM) was 97.5%, the viability, T/C (second compound 0.003 µM, first compound 0.001 µM) was 95.7% and the viability, T/C (second compound 0.003 µM, first compound 0.00316 µM) was 101%. The viability, T/C (second compound 0.003 µM, first compound 0.01 µM) was 114%, the viability, T/C (second compound 0.003 µM, first compound 0.0316 µM) was 93% and the viability, T/C (second compound 0.003 µM, first compound 0.1 µM) was 3.74%. The viability, T/C (second compound 0.00949 µM, first compound 0.000316 µM) was 108%, the viability, T/C (second compound 0.00949 µM, first compound 0.001 µM) was 114% and the viability, T/C (second compound 0.00949 µM, first compound 0.00316 µM) was 119%. For the same compound, the viability, T/C (second compound 0.00949 µM, first compound 0.01 µM) was 120%, the viability, T/C (second compound 0.00949 µM, first compound 0.0316 µM) was 45.1% and the viability, T/C (second compound 0.00949 µM, first compound 0.1 µM) was 1.87%. It also gave a viability, T/C (second compound 0.03 µM, first compound 0.000316 µM) of 74.5%, a viability, T/C (second compound 0.03 µM, first compound 0.001 µM) of 74.2% and a viability, T/C (second compound 0.03 µM, first compound 0.00316 µM) of 39.7%. For the same compound, the viability, T/C (second compound 0.03 µM, first compound 0.01 µM) was 26.1%, the viability, T/C (second compound 0.03 µM, first compound 0.0316 µM) was 4.36% and the viability, T/C (second compound 0.03 µM, first compound 0.1 µM) was 0.46%. The viability, T/C (second compound 0.0949 µM, first compound 0.000316 µM) was 7.99%, the viability, T/C (second compound 0.0949 µM, first compound 0.001 µM) was 7.3% and the viability, T/C (second compound 0.0949 µM, first compound 0.00316 µM) was 2.87%. The viability, T/C (second compound 0.0949 µM, first compound 0.01 µM) was 1.59%, the viability, T/C (second compound 0.0949 µM, first compound 0.0316 µM) was 0.69% and the viability, T/C (second compound 0.0949 µM, first compound 0.1 µM) was 0.3%. It also gave a viability, T/C (second compound 0.3 µM, first compound 0.000316 µM) of 3.49%, a viability, T/C (second compound 0.3 µM, first compound 0.001 µM) of 2.63% and a viability, T/C (second compound 0.3 µM, first compound 0.00316 µM) of 1.48%. For the same compound, the viability, T/C (second compound 0.3 µM, first compound 0.01 µM) was 0.92%, the viability, T/C (second compound 0.3 µM, first compound 0.0316 µM) was 0.47% and the viability, T/C (second compound 0.3 µM, first compound 0.1 µM) was 0.34%.
